According to patent publication US20170312308A1, “XENON AND/OR ARGON TREATMENT AS AN ADJUNCT TO PSY[…] PSYCHIATRIC DISORDERS” (THE MCLEAN HOSPITAL CORPORATION, priority 2012, published 2017):
Entries after “also recorded” stand apart in the source; their conditions may differ.

Columns and labels:
Type in all cases: in vivo, rat
[1] = system: Male Sprague-Dawley rats; experiment: Conditioned freezing paradigm: consolidation of fear memory (xenon exposure immediately after fear conditioning); details: for conditioned freezing to context (consolidation of fear memory) / conditioned freezing to tone (CS) (consolidation of fear memory): xenon 25% for 24 h immediately after tone+shock training, vs Air-treated, tested after exposure and retested 1 and 2 weeks later; for conditioned freezing to context (consolidation of fear memory): FIG. 1B; for conditioned freezing to tone (CS) (consolidation of fear memory): FIG. 1C
Protocol: (§1) An illustration of the methodology used for training and testing rats in the conditioned freezing paradigm is shown in FIG. 1 (see also Johansen et al., Cell, 2011, 147; 509-524). Male Sprague-Dawley rats (350-375 g) were housed for at least one week before the experiment. On the training day, rats were placed into a conditioning chamber, housed within a sound-attenuating cabinet (Med Associates, Georgia, Vt.), for 2 min before the onset of the conditioned stimulus (CS). The CS was a tone (5 kHz, 75 dB) that lasted for 30 s. The last 2 s of the CS were paired with a continuous foot shock (0.6 mA, the unconditioned stimulus (US)). Rats received two presentations of the CS+US (tone plus shock). After additional 30 s in the chamber, rats were randomly divided into two groups (n=4/group) and immediately placed in either the Air or xenon-exposure chambers. After 24-h of air or xenon (25%) exposure, rats were tested for retention of conditioned fear using conditioned freezing as a measure of fear. For the test, rats were placed into a different context and, 2 min later, were exposed to the tone CS (5 kHz, 75 dB) for 60 s. Freezing scores were calculated as the percentage of the total duration that the rat remained immobile (frozen) other than breathing during the first 2 min (freezing to context) and during presentation of the CS (freezing to tone). Rats were then returned to the main animal holding room (i.e. no more air or xenon exposure took place) and were retested 1 and 2 weeks later (re-test and 3rd test) as described above.

[2] = system: Male Sprague-Dawley rats; experiment: Conditioned freezing paradigm: reconsolidation of fear memory (xenon exposure after reactivation test); details: for conditioned freezing to context (reconsolidation of fear memory): FIG. 1D; for conditioned freezing to tone (reconsolidation of fear memory): FIG. 1E
Protocol: as §1
Newly formed memories, including traumatic memories, are stabilized over several hours after the acquisition for long-term storage. This process, termed consolidation, critically depends on the permanence of acquisition-induced synaptic modifications in the corresponding neural circuits and is NMDA-receptor dependent. Once retrieved, consolidated memory enters a labile state again and should be reconsolidated, or it will be diminished or lost (see Debiec, 2012). To explore the effects of xenon exposure on post-retrieval memory reconsolidation, the inventors trained and tested male Sprague-Dawley rats in the conditioned freezing paradigm described in the methods section above.
Immediately after the fear memory test (24 h post-conditioning), where animals are subjected to context and CS (tone) exposure previously paired with shock (on the training day), rats were placed in either the Air or xenon (25%) exposure chambers for 1 hr. Rats were then tested for conditioned freezing 48 hours later. […]

[3] = system: Male Sprague-Dawley rats; experiment: as above; details: xenon 25%, no react group (no reactivation test); for conditioned freezing to context, animals without reactivation test: FIG. 1F; for conditioned freezing to tone, animals without reactivation test: FIG. 1G
[4] = xenon 25% for 1 hr after reactivation test 24 h post-conditioning, re-tested 48 hours later (PR-LTM1)
[5] = xenon 25% for 1 hr after reactivation test 24 h post-conditioning, re-tested 48 hours later (PR-LTM1), listed as Xe
[6] = xenon 25% for one hour after reactivation, tested after another 48 hours (PR-LTM2)

[Xe] [xenon]
fear memory / conditioned freezing, context and cue not separated ([1]; inhaled xenon (25%), male Sprague-Dawley rats, vs non-treated animals, FIG. 1): significantly reduces the consolidation of fear memories; also recorded: significantly reduced conditioned freezing | conditioned freezing to context (consolidation of fear memory) [1]: reduced levels of conditioned freezing | conditioned freezing to context (consolidation of fear memory) ([1]; listed as Xe): significant reduction in freezing | conditioned freezing to tone (CS) (consolidation of fear memory) [1]: reduced levels of conditioned freezing | conditioned freezing to tone (CS) (consolidation of fear memory) ([1]; listed as Xe): also reduced | conditioned freezing to context (reconsolidation of fear memory) [2, 4]: reduces the expression of conditioned freezing; also recorded: blocks reconsolidation of conditioned fear | conditioned freezing to context (reconsolidation of fear memory) [2, 5]: significantly less freezing | conditioned freezing to tone (reconsolidation of fear memory) [2, 4]: reduces the expression of conditioned freezing; also recorded: blocks reconsolidation of conditioned fear | conditioned freezing to tone (reconsolidation of fear memory) [2, 5]: significantly less freezing | conditioned freezing to context (reconsolidation of fear memory) [2, 6]: significantly less freezing | conditioned freezing to tone (reconsolidation of fear memory) [2, 6]: significantly less freezing | conditioned freezing to context, animals without reactivation test [3]: does not block reconsolidation of conditioned fear | conditioned freezing to context, animals without reactivation test ([3]; listed as Xe): no reduction in freezing | conditioned freezing to tone, animals without reactivation test [3]: does not block reconsolidation of conditioned fear | conditioned freezing to tone, animals without reactivation test ([3]; listed as Xe): no reduction in freezing
